Data published in patent US20150094279A1, “PHARMACEUTICAL COMPOSITION AND METHOD FOR INHIBITING INFLAMMATION” (CHINA MEDICAL UNIVERSITY, priority 2011, published 2015).

Columns and labels:
[1] = test system: tumor necrosis factor-α (TNF-α); test: Sandwich ELISA quantification of TNF-α in supernatants of treated fibroblast-like synoviocytes; assay type: cell-based, human; conditions: fibroblast-like synoviocytes from patients with degenerative arthritis, 24 hours treatment, supernatant
Procedure: (§1) The fibroblast-like synoviocytes (FLS) from five patients with degenerative arthritis were collected and cultured. First, the joint synovium of the patients were cut into small pieces, suspended in a DMEM (Dulbecco modified eagle's medium) culture medium, and incubated under an environment of 37° C. and 5% CO2 for 3 days. The culture medium contains 1.5 g/L sodium bicarbonate (S6297, Sigma-Aldrich, St Louis, Mo., USA), 1% penicillin-streptomycin-neomycin (P408, Sigma-Aldrich), and 10% fetal bovine serum (04-001-1A, Biological Industries, Grand Island, N.Y., USA).
(§2) Non-attached cells were removed by a phosphate buffered saline solution (PBS), the culture medium was refreshed, and the attached cells were cultured for 2 weeks. After the above steps were repeated 3 to 6 times, the remaining cells were fibroblast-like synoviocytes. The obtained cells were then used for the following test.
(§3) The fibroblast-like synoviocytes obtained form Experiment A were cultured in a serum-free culture medium for 24 hours. Then, the fibroblast-like synoviocytes were separately cultured in the following four culture medium for 24 hours: (1) a DMEM culture medium comprising only 10% fetal bovine serum (as a control group); (2) a DMEM culture medium comprising 10% fetal bovine serum and hyaluronic acid (having an average molecular weight of 600 KDa to 800 KDa); (3) a DMEM culture medium comprising 10% fetal bovine serum and vitamin C, vitamin D, or vitamin E; and (4) a DMEM culture medium comprising 10% fetal bovine serum, hyaluronic acid (having an average molecular weight of 600 KDa to 800 KDa), and vitamin C, vitamin D or vitamin E. The concentrations of hyaluronic acid and vitamin in the above four culture mediums were the same as the above Preparation Example.
(§4) Then, the cells of the aforesaid four groups were collected and centrifuged, and the supernatants were collected for the following analysis.
(§5) In this experiment, the concentrations of two cytokines related to degenerative arthritis in the collected supernatants from Experiment B were determined by using a sandwich binding protein assay kit (or sandwich ELISA kits, purchased from the eBioscience company) based on the standard curves according to the manufacturer's manual to analyze the expression level of these cytokines and determine the inflammation level of the cells. […] Each sample was analyzed twice, and an enzyme-linked immunosorbent assay (ELISA) reader (Sunrise Remote, TECAN) was used to carry out the measurement.

Interleukin-1β (IL-1β) = test: Sandwich ELISA quantification of IL-1β in supernatants of treated fibroblast-like synoviocytes; assay type: cell-based, human; conditions: fibroblast-like synoviocytes from patients with degenerative arthritis, 24 hours treatment, supernatant
Procedure: as §1, §2, §3, §4, §5

[2] = Table 2 (vitamin D experiment), control 106.78
[3] = Table 2 (vitamin D experiment), control 97.47
[4] = Table 1 (vitamin C experiment), control 95.57
[5] = Table 1 (vitamin C experiment), control 91.98
[6] = Table 3 (vitamin E experiment), control 98.09
[7] = Table 3 (vitamin E experiment), control 97.37

Compound	TNF-α average concentration [1, 2]	IL-1β average concentration (Interleukin-1β (IL-1β); [3])	TNF-α average concentration [1, 4]	IL-1β average concentration (Interleukin-1β (IL-1β); [5])	TNF-α average concentration [1, 6]	IL-1β average concentration (Interleukin-1β (IL-1β); [7])
vitamin D	79.52 pg/mL	74.78 pg/mL				
O=C1O[C@H]([C@@H](O)CO)C(O)=C1O [vitamin C]			75.56 pg/mL	77.00 pg/mL		
vitamin E					77.03 pg/mL	75.57 pg/mL
hyaluronic acid	82.52 pg/mL	76.03 pg/mL	75.64 pg/mL	78.79 pg/mL	79.28 pg/mL	78.33 pg/mL
